Tests used:
MCF7 = test: Antiproliferative activity against human MCF7 cells assessed as inhibition of cell growth incubated for 48 hrs by propidium iodide staining based fluorometer assay; assay type: functional; conditions: MCF7, 48 h
HT-29 = test: cells; conditions: Homo sapiens, HT-29, 48 h
Description: Antiproliferative activity against human HT-29 cells assessed as inhibition of cell growth incubated for 48 hrs by propidium iodide staining based fluorometer assay

MIA PaCa-2 = test: Antiproliferative activity against human MIA PaCa-2 cells assessed as inhibition of cell growth incubated for 48 hrs by propidium iodide staining based fluorometer assay; assay type: functional; conditions: MIA PaCa-2, 48 h
A549 = test: Antiproliferative activity against human A549 cells assessed as inhibition of cell growth incubated for 48 hrs by propidium iodide staining based fluorometer assay; assay type: functional; conditions: A549, 48 h
NCI-H460 = test: cells; conditions: Homo sapiens, NCI-H460, 48 h
Description: Antiproliferative activity against human NCI-H460 cells assessed as inhibition of cell growth incubated for 48 hrs by propidium iodide staining based fluorometer assay

PANC-1 = test: cells; conditions: Homo sapiens, PANC-1, 48 h
Description: Antiproliferative activity against human PANC-1 cells assessed as inhibition of cell growth incubated for 48 hrs by propidium iodide staining based fluorometer assay

PC-3 = test: cells; conditions: Homo sapiens, PC-3, 48 h
Description: Antiproliferative activity against human PC-3 cells assessed as inhibition of cell growth incubated for 48 hrs by propidium iodide staining based fluorometer assay

[1] = Cytotoxicity against human MCF-10A cells assessed as cell viability incubated for 96 hrs by MTT assay; assay type: toxicity, cell-based; design: concentration or dose not given beside the values; conditions: read-out: Activity

Row | Compound | IC50 (MCF7) | IC50 (HT-29) | IC50 (MIA PaCa-2) | IC50 (A549) | IC50 (NCI-H460) | IC50 (PANC-1) | IC50 (PC-3) | viability at 96 h [1]
1 | COc1ccc(/C=C2\CCc3ccc(Cl)cc3C2=O)c(Cl)c1OC | 9.1 µM | 10.9 µM | 9.5 µM | 10.7 µM | 10.6 µM | 10.5 µM | 10.8 µM | 94%
2 | COc1cccc(/C=C2\CC(C)C/C(=C\c3cccc(OC)c3Cl)C2=O)c1Cl (stereo not given) | 2.8 µM | 3.4 µM | 2.9 µM | 3.1 µM | 4.2 µM | 3.3 µM | 3.9 µM | 93%
3 | COc1cc(/C=C2\CNC/C(=C\c3cc(OC)c(OC)c(OC)c3Br)C2=O)c(Br)c(OC)c1OC | 4 µM | 4.5 µM | 4.3 µM | 4.4 µM | 4.9 µM | 4.2 µM | 4.8 µM | 96%
4 | COc1ccc(OC)c2c1CC/C(=C\c1cc(OC)c(OC)c(OC)c1Br)C2=O | 2.4 µM | 1.9 µM | 2.2 µM | 2.6 µM | 2.1 µM | 2.5 µM | 2.2 µM | 91%
5 | COc1cccc(/C=C2\CNC/C(=C\c3cccc(OC)c3Cl)C2=O)c1Cl | 8.4 µM | 7.4 µM | 7.7 µM | 7.3 µM | 7.3 µM | 7.5 µM | 7.6 µM | 94%
6 | COc1ccc2c(c1)CC/C(=C\c1ccc(OC)c(OC)c1Cl)C2=O | 2.6 µM | 2.7 µM | 2.3 µM | 2.9 µM | 2.6 µM | 2.1 µM | 2 µM | 89%
7 | COc1cc2c(cc1OC)C(=O)/C(=C/c1cc(OC)c(OC)c(OC)c1Br)CC2 | 2.8 µM | 2.8 µM | 2.4 µM | 2.2 µM | 2.2 µM | 2.6 µM | 2 µM | 98%
8 | COc1cc2c(cc1OC)C(=O)/C(=C/c1ccc(OC)c(OC)c1Cl)CC2 | 5.4 µM | 5.2 µM | 5 µM | 5.4 µM | 5.8 µM | 5.4 µM | 5.2 µM | 97%
9 | COc1cc(/C=C2\CCC/C(=C\c3cc(OC)c(OC)c(OC)c3Br)C2=O)c(Br)c(OC)c1OC | 3.1 µM | 2 µM | 2.6 µM | 2.6 µM | 2.6 µM | 2.4 µM | 2.9 µM | 89%
10 | COc1ccc(/C=C2\CCc3ccc(Br)cc3C2=O)c(Cl)c1OC | 11.1 µM | 10.5 µM | 10.6 µM | 10.3 µM | 11.1 µM | 10.8 µM | 10.4 µM | 92%
11 | COc1ccc2c(c1)CC/C(=C\c1cc(OC)c(OC)c(OC)c1Br)C2=O | 1.9 µM | 1.5 µM | 1.6 µM | 1.9 µM | 1.9 µM | 1.4 µM | 1.5 µM | 90%
12 | COc1cc(/C=C2\CC(C)c3ccccc3C2=O)c(Br)c(OC)c1OC (stereo not given) | 2.1 µM | 2.9 µM | 2.3 µM | 2.6 µM | 2.2 µM | 2.4 µM | 2.4 µM | 92%
13 | COc1cc(/C=C2\CC(C)C/C(=C\c3cc(OC)c(OC)c(OC)c3Br)C2=O)c(Br)c(OC)c1OC (stereo not given) | 1.3 µM | 1.8 µM | 1.4 µM | 1.8 µM | 1.2 µM | 1.6 µM | 1.1 µM | 91%
14 | COc1ccc(/C=C2\CCc3c(O)cccc3C2=O)c(Cl)c1OC | 3.1 µM | 3 µM | 3.2 µM | 3.3 µM | 3.8 µM | 3.6 µM | 3.5 µM | 91%
15 | COc1cccc(/C=C2\CCc3ccc(Br)cc3C2=O)c1Cl | 14.1 µM | 14 µM | 12.8 µM | 13.3 µM | 12.9 µM | 13.4 µM | 13.7 µM | 94%
16 | COc1cccc(/C=C2\CC(C)c3ccccc3C2=O)c1Cl (stereo not given) | 8.8 µM | 8.4 µM | 9.8 µM | 8.7 µM | 9.6 µM | 8.3 µM | 9.9 µM | 98%
17 | COc1cccc2c1CC/C(=C\c1ccc(OC)c(OC)c1Cl)C2=O | 6.4 µM | 6.7 µM | 6.7 µM | 6.7 µM | 6.4 µM | 6.9 µM | 7.2 µM | 95%
18 | COc1ccc(/C=C2\CN(C)C/C(=C\c3ccc(OC)c(OC)c3Cl)C2=O)c(Cl)c1OC | 3.3 µM | 3.8 µM | 3.2 µM | 3.9 µM | 3.5 µM | 3.4 µM | 3.3 µM | 90%
19 | COc1cc(/C=C2\CCc3ccccc3C2=O)c(Br)c(OC)c1OC | 20.4 µM | 21.2 µM | 23.7 µM | 22.6 µM | 22.2 µM | 21.3 µM | 22 µM | 94%
20 | COc1cccc(/C=C2\CCc3c(OC)cccc3C2=O)c1Cl | 9 µM | 8.4 µM | 8.7 µM | 6.4 µM | 9 µM | 8.5 µM | 8.4 µM | 93%
21 | CCN(CC)CCO/N=C1\C(=C\c2cc(OC)c(OC)c(OC)c2Br)CCc2c(OC)ccc(OC)c21 | 2.2 µM | 2.9 µM | 2.1 µM | 2.1 µM | 2.9 µM | 2.7 µM | 2.2 µM | 95%
22 | COc1cc(/C=C2\CCc3ccc([N+](=O)[O-])cc3C2=O)c(Br)c(OC)c1OC | 1.4 µM | 1.4 µM | 1.5 µM | 1.3 µM | 1.3 µM | 1.2 µM | 1.4 µM | 88%
23 | COc1cccc(/C=C2\CN(C)C/C(=C\c3cccc(OC)c3Cl)C2=O)c1Cl | 4.4 µM | 4.4 µM | 4.6 µM | 4 µM | 4 µM | 4.2 µM | 4.9 µM | 91%
24 | COc1ccc(/C=C2\CN(Cc3ccccc3)C/C(=C\c3ccc(OC)c(OC)c3Cl)C2=O)c(Cl)c1OC | 15.4 µM | 10.3 µM | 15.5 µM | 16.2 µM | 13.9 µM | 15.6 µM | 15.7 µM | 89%
25 | COc1cccc(/C=C2\CCC/C(=C\c3cccc(OC)c3Cl)C2=O)c1Cl | 6.5 µM | 6.1 µM | 7.2 µM | 8.1 µM | 5.4 µM | 6.9 µM | 6.4 µM | 90%

From ChEMBL document CHEMBL5257024, “Synthesis of α,β-Unsaturated Carbonyl-Based Compounds, Oxime and Oxime Ether Analogs as Potential Anticancer Agents for Overcoming Cancer Multidrug Resistance by Modulation of Efflux Pumps in Tumor Cells” (J Med Chem, 2016)
